In patent US20240016788A1, “PHARMACEUTICAL COMPOSITION FOR PREVENTING OR TREATING DIABETIC AND POSTMENOPAUSAL OSTEOPOROSIS, CONTAINING ADIPORON” (PnP Biopharm Co., Ltd., priority 2020, published 2024):

Test system: type 2 diabetic db/db mice
Experiment: Serum ACP5/TRAP, osteocalcin and urine deoxypyridinoline by ELISA, db/db mice
Type: in vivo
Conditions: adiporon 30 mg/kg/day, 4 weeks
Experimental: A leptin receptor-defective type 2 diabetic animal model (db/db mice) and a normal control group (db/m mice) were used, and the experiment was performed by dividing into 4 groups as follows: non-diabetic control group (dm cont, n=8), non-diabetic adiporon treatment group (dm+AdipoR, n=8), diabetic control group (db cont, n=8) and diabetic adiporon treatment group (db+AdipoR, n=8). The control group was fed a normal diet, and the adiporon treatment group was fed a diet comprising adiporon (30 mg/kg/day) for 4 weeks from 16 weeks of age. During the experiment, body weight was measured every week, fasting blood glucose was measured using an Accu-Chek meter (Roche Diagnostics, St. Louis, MO) every 2 weeks after blood was collected from the tail vein, and glycated hemoglobin (HbA1c) was measured every 4 weeks using a […] automatic analyzer (Bayer healthcare LLC, IN) after blood was collected from the tail vein. The temperature and humidity of the breeding room were maintained at 20˜25° C. and 50˜60%, respectively, and the lights were turned on and off at 12-hour intervals. In both experiments, blood collected from each mouse was allowed to stand at room temperature for 30 minutes, and then centrifuged at 3000 rpm for 15 minutes to obtain serum. Blood levels of tartrate-resistant acid phosphatase (TRAP/ACP5) and osterocalcin concentration were measured by ELISA. In addition, 8-hydroxy-deoxyguanosine, a DNA damage marker caused by oxidative stress, and isoprostane, a marker of oxidative stress caused by lipid peroxidation caused by free fatty acids, and deoxypyridinoline (DPP), which indicates the function of osteoclasts, were measured in 24-hour urine concentrations by ELISA method.

SMILES: Cl.O=C(COc1ccc(C(=O)c2ccccc2)cc1)NC1CCN(Cc2ccccc2)CC1 [adiporon]
- Decreased serum ACP5/TRAP concentration (ELISA): restored
- Decreased serum osteocalcin concentration (ELISA): restored
- Increased concentration of deoxypyridinoline in urine (P<0.001): reversed
